Measured values: ChEMBL document CHEMBL5143550, “Thiol- and Disulfide-Containing Vancomycin Derivatives Against Bacterial Resistance and Biofilm Formation” (2021)
≈ marks a conversion by molar mass, not a printed value.

Tests used:
Format in all cases: functional
Enterococcus faecalis [1] = assay: Antibacterial activity against VanB-resistant Enterococcus faecalis ATCC 51299 assessed as inhibition of bacterial growth by standard broth microdilution susceptibility method
Staphylococcus aureus [2] = assay: Antibacterial activity against heterogenous vancomycin-intermediate Staphylococcus aureus ATCC NRS24 assessed as inhibition of bacterial growth by standard broth microdilution susceptibility method
Staphylococcus aureus [3] = assay: Antibacterial activity against vancomycin-intermediate Staphylococcus aureus ATCC NRS1 assessed as inhibition of bacterial growth by standard broth microdilution susceptibility method
Enterococcus faecium [4] = assay: Antibacterial activity against VanA-resistant Enterococcus faecium MMX0485 assessed as inhibition of bacterial growth by standard broth microdilution susceptibility method
Streptococcus pneumoniae [5] = assay: Potency index, ratio of vancomycin MIC to test compound MIC for antibacterial activity against […] assessed as inhibition of bacterial growth by standard broth microdilution susceptibility method
Enterococcus faecalis [6] = assay: Antibiofilm activity against VanB-resistant Enterococcus faecalis ATCC 51299 assessed as inhibition of biofilm formation in BHIG medium incubated for 24 hrs by resazurin assay
Staphylococcus aureus [7] = assay: Antibacterial activity against methicillin-resistant Staphylococcus aureus ATCC 43300 assessed as inhibition of bacterial growth by standard broth microdilution susceptibility method
Enterococcus faecalis [8] = assay: Antibiofilm activity against VanB-resistant Enterococcus faecalis ATCC 51299 assessed as inhibition of biofilm formation by measuring decrease in RFU in BHIG medium incubated for 24 hrs by resazurin assay
Enterococcus faecalis [9] = assay: Antibacterial activity against VanB-resistant Enterococcus faecalis ATCC 51299 assessed as inhibition of colony formation in BHIG medium incubated for 24 hrs by resazurin assay
Enterococcus gallinarum [10] = assay: Antibacterial activity against VanC-resistant Enterococcus gallinarum ATCC 700221 assessed as inhibition of bacterial growth by standard broth microdilution susceptibility method
Staphylococcus aureus [11] = assay: Antibacterial activity against Staphylococcus aureus ATCC 25923 assessed as inhibition of bacterial growth by standard broth microdilution susceptibility method
Clostridioides difficile [12] = assay: Antibacterial activity against Clostridium difficile ATCC 43255 assessed as inhibition of bacterial growth by standard broth microdilution susceptibility method
Staphylococcus aureus [13] = assay: Potency index, ratio of vancomycin MIC to test compound MIC for antibacterial activity against heterogenous vancomycin-intermediate Staphylococcus aureus ATCC NRS24 assessed as inhibition of bacterial growth by standard broth microdilution susceptibility method
Clostridioides difficile [14] = assay: Potency index, ratio of vancomycin MIC to test compound MIC for antibacterial activity against Clostridium difficile ATCC 43255 assessed as inhibition of bacterial growth by standard broth microdilution susceptibility method
Streptococcus pneumoniae [15] = assay: Antibacterial activity against […] assessed as inhibition of bacterial growth by standard broth microdilution susceptibility method
Moraxella catarrhalis = assay: Antibacterial activity against Moraxella catarrhalis ATCC 8193 assessed as inhibition of bacterial growth by standard broth microdilution susceptibility method
Staphylococcus aureus [16] = assay: Potency index, ratio of vancomycin MIC to test compound MIC for antibacterial activity against vancomycin-intermediate Staphylococcus aureus ATCC NRS1 assessed as inhibition of bacterial growth by standard broth microdilution susceptibility method
Enterococcus faecalis [17] = assay: Antibacterial activity against VanB-resistant Enterococcus faecalis ATCC 51299 assessed as inhibition of bacterial growth in BHIG medium incubated for 24 hrs by resazurin assay
Enterococcus faecalis [18] = assay: Antibiofilm activity against VanB-resistant Enterococcus faecalis ATCC 51299 assessed as inhibition of biofilm formation in BHIG medium incubated for 24 hrs by resazurin assay relative to vancomycin
Enterococcus faecium [19] = assay: Potency index, ratio of vancomycin MIC to test compound MIC for antibacterial activity against VanA-resistant Enterococcus faecium MMX0485 assessed as inhibition of bacterial growth by standard broth microdilution susceptibility method
Enterococcus faecalis [20] = assay: Potency index, ratio of vancomycin MIC to test compound MIC for antibacterial activity against VanB-resistant Enterococcus faecalis ATCC 51299 assessed as inhibition of bacterial growth by standard broth microdilution susceptibility method
Enterococcus gallinarum [21] = assay: Potency index, ratio of vancomycin MIC to test compound MIC for antibacterial activity against VanC-resistant Enterococcus gallinarum ATCC 700221 assessed as inhibition of bacterial growth by standard broth microdilution susceptibility method

Row | SMILES | MIC (Enterococcus faecalis [1]) | MIC (Staphylococcus aureus [2]) | MIC (Staphylococcus aureus [3]) | MIC (Enterococcus faecium [4]) | MBIC (Enterococcus faecalis [6]) | MIC (Staphylococcus aureus [7]) | inhibition (INH) (Enterococcus faecalis [8]) | Activity (Enterococcus faecalis [9]) | MIC (Enterococcus gallinarum [10]) | MIC (Staphylococcus aureus [11]) | MIC (Clostridioides difficile [12]) | MIC (Streptococcus pneumoniae [15]) | MIC (Moraxella catarrhalis) | inhibition (INH) (Enterococcus faecalis [17]) | Ratio (Enterococcus faecalis [18]) | Ratio (Enterococcus faecium [19]) | Ratio (Enterococcus faecalis [20]) | Ratio (Enterococcus gallinarum [21]) | further results
1 | CN[C@H](CC(C)C)C(=O)N[C@H]1C(=O)N[C@@H](CC(N)=O)C(=O)N[C@H]2C(=O)N[C@H]3C(=O)N[C@H](C(=O)N[C@H](C(=O)NCCCCCNC(=O)CCCCC4CCSS4)c4cc(O)cc(O)c4-c4cc3ccc4O)[C@H](O)c3ccc(c(Cl)c3)Oc3cc2cc(c3O[C@@H]2O[C@H](CO)[C@@H](O)[C@H](O)[C@H]2O[C@H]2C[C@](C)(N)[C@H](O)[C@H](C)O2)Oc2ccc(cc2Cl)[C@H]1O (some centres undefined) | 4 µg/mL (≈ 2.32 µM) | 32 µg/mL (≈ 18.6 µM) | 1 µg/mL (≈ 0.581 µM) | > 32 µg/mL | 8 µg/mL | 2 µg/mL (≈ 1.16 µM) | 100% | 8 µg/mL | 8 µg/mL (≈ 4.65 µM) | 2 µg/mL (≈ 1.16 µM) | 0.06 µg/mL (≈ 0.0348 µM) | 0.06 µg/mL (≈ 0.0348 µM) | 4 µg/mL (≈ 2.32 µM) | 100% | – | – | – | – | Ratio (Streptococcus pneumoniae [5]): 4; Ratio (Staphylococcus aureus [13]): 4; Ratio (Clostridioides difficile [14]): 4; Ratio (Staphylococcus aureus [16]): 4
2 | CN[C@H](CC(C)C)C(=O)N[C@H]1C(=O)N[C@@H](CC(N)=O)C(=O)N[C@H]2C(=O)N[C@H]3C(=O)N[C@H](C(=O)N[C@H](C(=O)NCCSSCCNC(=O)CCSC(c4ccccc4)(c4ccccc4)c4ccccc4)c4cc(O)cc(O)c4-c4cc3ccc4O)[C@H](O)c3ccc(c(Cl)c3)Oc3cc2cc(c3O[C@@H]2O[C@H](CO)[C@@H](O)[C@H](O)[C@H]2O[C@H]2C[C@](C)(N)[C@H](O)[C@H](C)O2)Oc2ccc(cc2Cl)[C@H]1O | 2 µg/mL (≈ 1.04 µM) | – | – | – | 2 µg/mL | 4 µg/mL (≈ 2.09 µM) | 97% | 2 µg/mL | 1 µg/mL (≈ 0.522 µM) | 8 µg/mL (≈ 4.18 µM) | – | – | – | 100% | 32 | 8 | 8 | 8 | Ratio (Staphylococcus aureus [13]): 8; Ratio (Staphylococcus aureus [16]): 8
3 | CN[C@H](CC(C)C)C(=O)N[C@H]1C(=O)N[C@@H](CC(N)=O)C(=O)N[C@H]2C(=O)N[C@H]3C(=O)N[C@H](C(=O)N[C@H](C(=O)NCCSSCCCCCCCCCCC[N+](C)(C)C)c4cc(O)cc(O)c4-c4cc3ccc4O)[C@H](O)c3ccc(c(Cl)c3)Oc3cc2cc(c3O[C@@H]2O[C@H](CO)[C@@H](O)[C@H](O)[C@H]2O[C@H]2C[C@](C)(N)[C@H](O)[C@H](C)O2)Oc2ccc(cc2Cl)[C@H]1O | 2 µg/mL | 8 µg/mL | 0.25 µg/mL | 16 µg/mL | 4 µg/mL | 0.5 µg/mL | 84% | 4 µg/mL | 2 µg/mL | 1 µg/mL | 1 µg/mL | 0.12 µg/mL | 1 µg/mL | 98% | 16 | 8 | 8 | 8 | –
4 | CN[C@H](CC(C)C)C(=O)N[C@H]1C(=O)N[C@@H](CC(N)=O)C(=O)N[C@H]2C(=O)N[C@H]3C(=O)N[C@H](C(=O)N[C@H](C(=O)NCCSSCC[N+](C)(C)C)c4cc(O)cc(O)c4-c4cc3ccc4O)[C@H](O)c3ccc(c(Cl)c3)Oc3cc2cc(c3O[C@@H]2O[C@H](CO)[C@@H](O)[C@H](O)[C@H]2O[C@H]2C[C@](C)(N)[C@H](O)[C@H](C)O2)Oc2ccc(cc2Cl)[C@H]1O | 16 µg/mL | > 32 µg/mL | 0.5 µg/mL | 32 µg/mL | 16 µg/mL | 0.5 µg/mL | 91% | 16 µg/mL | 4 µg/mL | 1 µg/mL | ≤ 0.015 µg/mL | 0.25 µg/mL | 2 µg/mL | 100% | – | 8 | 8 | 8 | –
5 | CN[C@H](CC(C)C)C(=O)N[C@H]1C(=O)N[C@@H](CC(N)=O)C(=O)N[C@H]2C(=O)N[C@H]3C(=O)N[C@H](C(=O)N[C@H](C(=O)NCCSSCCCCC[N+](C)(C)C)c4cc(O)cc(O)c4-c4cc3ccc4O)[C@H](O)c3ccc(c(Cl)c3)Oc3cc2cc(c3O[C@@H]2O[C@H](CO)[C@@H](O)[C@H](O)[C@H]2O[C@H]2C[C@](C)(N)[C@H](O)[C@H](C)O2)Oc2ccc(cc2Cl)[C@H]1O | 8 µg/mL | > 32 µg/mL | 1 µg/mL | 16 µg/mL | 16 µg/mL | 0.5 µg/mL | 87% | 16 µg/mL | 4 µg/mL | 1 µg/mL | ≤ 0.015 µg/mL | 0.06 µg/mL | 2 µg/mL | 97% | – | 8 | 8 | 8 | –
6 | CN[C@H](CC(C)C)C(=O)N[C@H]1C(=O)N[C@@H](CC(N)=O)C(=O)N[C@H]2C(=O)N[C@H]3C(=O)N[C@H](C(=O)N[C@H](C(=O)NCCS)c4cc(O)cc(O)c4-c4cc3ccc4O)[C@H](O)c3ccc(c(Cl)c3)Oc3cc2cc(c3O[C@@H]2O[C@H](CO)[C@@H](O)[C@H](O)[C@H]2O[C@H]2C[C@](C)(N)[C@H](O)[C@H](C)O2)Oc2ccc(cc2Cl)[C@H]1O | 2 µg/mL (≈ 1.33 µM) | – | – | – | 4 µg/mL | 4 µg/mL (≈ 2.65 µM) | 99% | 4 µg/mL | 2 µg/mL (≈ 1.33 µM) | 4 µg/mL (≈ 2.65 µM) | – | – | – | 100% | 16 | – | – | – | –
7 | CN[C@H](CC(C)C)C(=O)N[C@H]1C(=O)N[C@@H](CC(N)=O)C(=O)N[C@H]2C(=O)N[C@H]3C(=O)N[C@H](C(=O)N[C@H](C(=O)NCCCS)c4cc(O)cc(O)c4-c4cc3ccc4O)[C@H](O)c3ccc(c(Cl)c3)Oc3cc2cc(c3O[C@@H]2O[C@H](CO)[C@@H](O)[C@H](O)[C@H]2O[C@H]2C[C@](C)(N)[C@H](O)[C@H](C)O2)Oc2ccc(cc2Cl)[C@H]1O | 4 µg/mL (≈ 2.63 µM) | > 32 µg/mL | 8 µg/mL (≈ 5.25 µM) | 1 µg/mL (≈ 0.657 µM) | 4 µg/mL | 4 µg/mL (≈ 2.63 µM) | 95% | 4 µg/mL | 1 µg/mL (≈ 0.657 µM) | 4 µg/mL (≈ 2.63 µM) | 0.12 µg/mL (≈ 0.0788 µM) | ≤ 0.03 µg/mL | 16 µg/mL (≈ 10.5 µM) | 100% | 16 | – | – | – | –
8 | CN[C@H](CC(C)C)C(=O)N[C@H]1C(=O)N[C@@H](CC(N)=O)C(=O)N[C@H]2C(=O)N[C@H]3C(=O)N[C@H](C(=O)N[C@H](C(=O)NCCCCCS)c4cc(O)cc(O)c4-c4cc3ccc4O)[C@H](O)c3ccc(c(Cl)c3)Oc3cc2cc(c3O[C@@H]2O[C@H](CO)[C@@H](O)[C@H](O)[C@H]2O[C@H]2C[C@](C)(N)[C@H](O)[C@H](C)O2)Oc2ccc(cc2Cl)[C@H]1O | 1 µg/mL (≈ 0.645 µM) | > 32 µg/mL | 2 µg/mL (≈ 1.29 µM) | 1 µg/mL (≈ 0.645 µM) | 32 µg/mL | 8 µg/mL (≈ 5.16 µM) | 99% | 32 µg/mL | 0.5 µg/mL (≈ 0.322 µM) | 8 µg/mL (≈ 5.16 µM) | 0.06 µg/mL (≈ 0.0387 µM) | ≤ 0.03 µg/mL | 4 µg/mL (≈ 2.58 µM) | 100% | – | – | – | – | Ratio (Streptococcus pneumoniae [5]): 16; Ratio (Clostridioides difficile [14]): 16
